Laboratory results from patent US11952586B2, “B-cell cultivation method” (Hoffmann-La Roche Inc., priority 2017, dated 2024).

System: single deposited B-cells
Test: co-cultivation of single deposited B-cells with EL-4 B5 feeder cells; IgG in supernatant by ELISA
Format: cell-based, rabbit
Details: for frequency per plate of rbIgG-positive wells: 5,000 non-irradiated EL-4 B5 cells per well
Method: Single cell sorted B-cells were cultured in 96-well plates with 200 μl/well EL-4 B5 medium with Pansorbin Cells (SAC) (Calbiochem (Merck), Darmstadt, Deutschland), EL-4 B5 cells (0-5×10^4/well) and rabbit thymocyte supernatant or cytokine mix, respectively, for 7 days at 37° C. in an atmosphere of 5% CO2 in the incubator. B-cell culture supernatants were removed for screening and the cells harvested immediately for variable region gene cloning or frozen at −80° C. in 100 μl RLT buffer (Qiagen, Hilden, Germany).
A mixture of 0.5 μg/ml of biotinylated mouse anti-rabbit IgG antibody (Sigma-Aldrich) and 0.35 μg/ml anti-rabbit IgG HRP conjugate (Sigma-Aldrich) was transferred to 384 well streptavidin coated microtiter plates (MicroCoat Biotechnologie GmbH). Dilutions of B-cell supernatants in PBS supplemented with 0.5% BSA and 0.05% Tween®-20 were added and incubated for 90 min at RT. After repeated washing (6×) with PBST (phosphate buffered saline with 0.2% Tween buffer the plates were developed with BM Blue® HRP substrate solution and color formation was measured by absorbance at 370 nm. A commercial rabbit IgG (Sigma-Aldrich) was used as a calibration standard.

[1] = PMA 0.048 ng/ml, 3 Gy, 15k/Well
[2] = PMA 0.048 ng/ml, 4 Gy, 20k/Well
[3] = PMA 0.048 ng/ml, 5 Gy, 20k/Well
[4] = PMA 0.048 ng/ml, 8 Gy, 20k/Well
[5] = PMA 0.048 ng/ml, 50 Gy, 50k/Well
[6] = PMA 0.109 ng/ml, 3 Gy, 15k/Well
[7] = PMA 0.109 ng/ml, 4 Gy, 20k/Well
[8] = PMA 0.109 ng/ml, 5 Gy, 20k/Well
[9] = PMA 0.109 ng/ml, 8 Gy, 20k/Well
[10] = PMA 0.109 ng/ml, 50 Gy, 50k/Well
[11] = PMA 0.25 ng/ml, 50 Gy, 50k/Well

SMILES: CCCCCCCCCCCCCC(=O)O[C@@H]1[C@@H](C)[C@@]2(O)[C@@H](C=C(CO)C[C@]3(O)C(=O)C(C)=C[C@@H]23)[C@@H]2C(C)(C)[C@]12OC(C)=O [PMA, phorbol-12-myristate-13-acetate]
- influence of PMA concentration on frequency of IgG positive wells or productivity (4 Gy irradiated EL-4 B5 cells, 0.015 ng/ml to 1.3 ng/ml PMA): no influence
- effect of the addition of PMA on frequency and productivity (50 Gy irradiated EL-4 B5 cells): concentration dependent effect
- Average IgG Productivity of all IgG+ wells [1]: 1.405 µg/mL
- IgG+ Frequency [1]: 48.8 % total wells
- Average IgG Productivity of all IgG+ wells [2]: 5.465 µg/mL
- IgG+ Frequency [2]: 73.8 % total wells
- Average IgG Productivity of all IgG+ wells [3]: 5.769 µg/mL
- IgG+ Frequency [3]: 71.4 % total wells
- Average IgG Productivity of all IgG+ wells [4]: 5.739 µg/mL
- IgG+ Frequency [4]: 84.5 % total wells
- Average IgG Productivity of all IgG+ wells [5]: 2.821 µg/mL
- IgG+ Frequency [5]: 14.3 % total wells
- frequency per plate of rbIgG-positive wells (PMA 0.08 ng/ml, 0.031x CM): 39.3 % total
- frequency per plate of rbIgG-positive wells (PMA 0.08 ng/ml, 0.1x CM): 44.0 % total
- frequency per plate of rbIgG-positive wells (PMA 0.08 ng/ml, 0.31x CM): 51.2 % total
- frequency per plate of rbIgG-positive wells (PMA 0.08 ng/ml, 1x CM): 65.5 % total
- frequency per plate of rbIgG-positive wells (PMA 0.08 ng/ml, 2x CM): 65.5 % total
- Average IgG Productivity of all IgG+ wells [6]: 2.932 µg/mL
- IgG+ Frequency [6]: 47.6 % total wells
- Average IgG Productivity of all IgG+ wells [7]: 5.772 µg/mL
- IgG+ Frequency [7]: 76.2 % total wells
- Average IgG Productivity of all IgG+ wells [8]: 5.335 µg/mL
- IgG+ Frequency [8]: 83.3 % total wells
- Average IgG Productivity of all IgG+ wells [9]: 5.614 µg/mL
- IgG+ Frequency [9]: 77.4 % total wells
- Average IgG Productivity of all IgG+ wells [10]: 1.942 µg/mL
- IgG+ Frequency [10]: 16.7 % total wells
- frequency per plate of rbIgG-positive wells (PMA 0.14 ng/ml, 0.031x CM): 35.7 % total
- frequency per plate of rbIgG-positive wells (PMA 0.14 ng/ml, 0.1x CM): 52.4 % total
- frequency per plate of rbIgG-positive wells (PMA 0.14 ng/ml, 0.31x CM): 54.8 % total
- frequency per plate of rbIgG-positive wells (PMA 0.14 ng/ml, 1x CM): 69.0 % total
- frequency per plate of rbIgG-positive wells (PMA 0.14 ng/ml, 2x CM): 54.8 % total
- frequency per plate of rbIgG-positive wells (PMA 0.25 ng/ml, 0.031x CM): 53.6 % total
- frequency per plate of rbIgG-positive wells (PMA 0.25 ng/ml, 0.1x CM): 54.8 % total
- frequency per plate of rbIgG-positive wells (PMA 0.25 ng/ml, 0.31x CM): 73.8 % total
- frequency per plate of rbIgG-positive wells (PMA 0.25 ng/ml, 1x CM): 65.5 % total
- frequency per plate of rbIgG-positive wells (PMA 0.25 ng/ml, 2x CM): 48.8 % total
- Average IgG Productivity of all IgG+ wells (PMA 0.25 ng/ml, 3 Gy, 15k/Well): 3.094 µg/mL
- IgG+ Frequency (PMA 0.25 ng/ml, 3 Gy, 15k/Well): 47.6 % total wells
- Average IgG Productivity of all IgG+ wells (PMA 0.25 ng/ml, 4 Gy, 20k/Well): 4.61 µg/mL
- IgG+ Frequency (PMA 0.25 ng/ml, 4 Gy, 20k/Well): 75 % total wells
- Average IgG Productivity of all IgG+ wells (PMA 0.25 ng/ml, 5 Gy, 20k/Well): 5.313 µg/mL
- IgG+ Frequency (PMA 0.25 ng/ml, 5 Gy, 20k/Well): 84.5 % total wells
- Average IgG Productivity of all IgG+ wells (PMA 0.25 ng/ml, 8 Gy, 20k/Well): 5.945 µg/mL
- IgG+ Frequency (PMA 0.25 ng/ml, 8 Gy, 20k/Well): 88.1 % total wells
- Average IgG Productivity of all IgG+ wells [11]: 1.893 µg/mL
- IgG+ Frequency [11]: 20.2 % total wells
- frequency per plate of rbIgG-positive wells (PMA 0.43 ng/ml, 0.031x CM): 67.9 % total
- frequency per plate of rbIgG-positive wells (PMA 0.43 ng/ml, 0.1x CM): 72.6 % total
- frequency per plate of rbIgG-positive wells (PMA 0.43 ng/ml, 0.31x CM): 71.4 % total
- frequency per plate of rbIgG-positive wells (PMA 0.43 ng/ml, 1x CM): 50.0 % total
- frequency per plate of rbIgG-positive wells (PMA 0.43 ng/ml, 2x CM): 45.2 % total
- Average IgG Productivity of all IgG+ wells (PMA 0.57 ng/ml, 3 Gy, 15k/Well): 6.067 µg/mL
